Source: patent US20090170872A1, “Compounds and Their Pharmaceutical Use” (Orchid Research Laboratories Limited, priority 2005, published 2009)

What was measured:
serum TNF-α production = test: In-vivo TNF-α inhibition assay (LPS-induced serum TNF-α in mice); conditions: male Swiss albino mice, oral, serum 90 minutes after LPS challenge
Description: TNF-α inhibitory activity is assessed by in-vivo inhibition of serum TNF-α production in mice. This method is used to assess the inhibitory actions of compounds, on TNF-[…] production in mouse (Griswold et al J Pharmacol Exp Ther 287,705, 1998, Garcia et al, Histol Histopathol 5(1), 43, 1990, and Victor et al, Physiol Res 52,789, 2003). Male Swiss albino mice with body weights equivalent within each group are selected. The animals are fasted for eighteen hours with free access to water. The control group receives only LPS and the drug treatment group receives LPS and the test compound. At the start of the experiment, the drug is administered orally. Thirty minutes later, the animals are given intraperitoneal injection with lipo-polysaccharide (LPS). Blood samples are withdrawn 90 minutes after the LPS challenge, which is the time point of maximal elevation of serum TNF-α activity. Blood was centrifuged for 10 minutes at 4° C. Serum samples were assayed for TNF-[…] levels using Mouse ELISA kit. The Percent Inhibition of TNF-α production is determined by comparison with LPS-treated and LPS/drug treated groups.

COX-2 = molecular target: T1, COX-2 (Homo sapiens, UniProt P35354); test: COX-2 enzyme based assay (purified recombinant enzyme, prostaglandin EIA); type: biochemical
T1 sequence (P35354 18-604): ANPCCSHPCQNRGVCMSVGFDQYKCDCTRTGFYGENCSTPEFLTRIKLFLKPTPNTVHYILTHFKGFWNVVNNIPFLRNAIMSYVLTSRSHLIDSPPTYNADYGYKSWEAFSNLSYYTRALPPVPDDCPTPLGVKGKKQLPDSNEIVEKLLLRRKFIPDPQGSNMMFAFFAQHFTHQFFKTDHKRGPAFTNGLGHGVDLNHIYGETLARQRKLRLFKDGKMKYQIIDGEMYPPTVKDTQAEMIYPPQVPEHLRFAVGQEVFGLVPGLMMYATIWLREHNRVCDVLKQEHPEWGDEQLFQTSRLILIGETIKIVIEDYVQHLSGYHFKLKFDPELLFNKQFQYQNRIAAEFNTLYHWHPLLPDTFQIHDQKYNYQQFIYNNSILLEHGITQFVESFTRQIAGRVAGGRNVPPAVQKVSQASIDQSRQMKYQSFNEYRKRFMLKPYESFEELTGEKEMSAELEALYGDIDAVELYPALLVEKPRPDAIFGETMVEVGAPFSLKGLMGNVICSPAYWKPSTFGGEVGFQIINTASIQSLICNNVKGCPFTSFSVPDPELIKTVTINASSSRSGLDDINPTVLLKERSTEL
Description: (§1) COX-1 and COX-2 enzyme based assays were carried out to check the inhibitory potential of test compounds on the production of prostaglandin by purified recombinant COX-1/COX-2 enzyme (Proc. Nat. Acad. Sci. USA, 88, 2692-2696, 1991; J. Clin. Immunoassay 15, 116-120, 1992) In this assay, the potential of the test compound to inhibit the production of prostaglandin's either by COX-1 or COX-2 from arachidonic acid (substrate) was measured. This was an enzyme based in-vitro assay to evaluate selective COX inhibition with good reproducibility.
(§2) Arachidonic acid was converted to PGH2 (Intermediate product) by COX1/COX-2 in the presence or absence of the test compound. The reaction was carried out at 37° C. and after 2 minutes it was stopped by adding 1M HCl. The intermediate product PGH2 was converted to a stable prostanoid product PGF2α by SnCl2 reduction. The amount of PGF2α produced in the reaction was inversely proportional to the COX inhibitory potential of the test compound. The prostanoid product was quantified via enzyme immunoassay (EIA) using a broadly specific antibody that binds to all the major forms of prostaglandin, using Cayman ELISA kit as per the procedure outlined by the manufacturer (Cayman Chemicals, Ann Arbor, USA).

COX-1 = COX-1 (Homo sapiens, UniProt P23219); test: COX-1 enzyme based assay (purified recombinant enzyme, prostaglandin EIA); type: biochemical
COX-1, sequence (P23219 24-599): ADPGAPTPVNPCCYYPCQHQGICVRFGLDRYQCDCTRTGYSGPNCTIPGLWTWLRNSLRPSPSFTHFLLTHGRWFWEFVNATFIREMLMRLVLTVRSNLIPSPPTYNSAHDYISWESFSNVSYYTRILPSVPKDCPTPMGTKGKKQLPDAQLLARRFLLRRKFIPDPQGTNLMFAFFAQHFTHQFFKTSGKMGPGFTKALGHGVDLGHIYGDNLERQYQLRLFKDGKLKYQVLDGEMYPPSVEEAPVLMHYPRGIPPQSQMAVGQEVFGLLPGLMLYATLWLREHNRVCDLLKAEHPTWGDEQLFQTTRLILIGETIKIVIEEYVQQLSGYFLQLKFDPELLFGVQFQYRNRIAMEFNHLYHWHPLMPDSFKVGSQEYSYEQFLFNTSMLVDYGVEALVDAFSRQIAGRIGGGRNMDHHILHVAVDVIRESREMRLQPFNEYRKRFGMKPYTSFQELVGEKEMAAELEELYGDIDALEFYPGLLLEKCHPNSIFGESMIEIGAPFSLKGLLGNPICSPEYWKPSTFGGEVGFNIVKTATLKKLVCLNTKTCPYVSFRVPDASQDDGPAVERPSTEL
Description: as §1, §2

IL-6 = IL-6 production in LPS-stimulated human whole blood (ELISA); type: cell-based; conditions: LPS 4 hours, read-out: % IL-6 Inhibitory Activity (hPBMC)
Description: This assay determines the effect of test compounds on the production of IL-6 from human whole blood. Compounds are tested for their ability to downregulate the production of IL-6 in activated whole blood. The test compounds are pre-incubated for 15 minutes at 37° C. and then stimulated with Lipopolysaccharide (Salmonella abortus equi, 1 µg/ml) for 4 hours at 37° C. in 5% CO2. The levels of IL-6 are estimated using Enzyme linked Immunosorbent assay performed in a 96 well format as per the procedure of the manufacturer. (Cayman Chemical, Ann Arbor, USA).

TNF-α = TNF-α production in LPS-stimulated human whole blood (ELISA); type: cell-based; conditions: LPS 4 hours, read-out: % TNF-α Inhibitory Activity in (hPBMC)
Description: This assay determines the effect of the test compounds on the production of TNF-α in human whole blood. TNF-α assay is carried out as described by Armin Hatzelmann and Christian Schudt (J Pharm Exp Ther 297, 261, 2001). Compounds are tested for their ability to inhibit the activity of TNF-α in human whole blood. The test compounds are pre-incubated for 15 minutes at 37° C. and then stimulated with Lipopolysaccharide (Salmonella abortus equi, 1 µg/ml) for 4 hours at 37° C. in 5% CO2. The levels of TNF-α are estimated using Enzyme linked Immunosorbent assay performed in a 96 well format as per the procedure of the manufacturer (Cayman Chemical, Ann Arbor, USA).

SMILES | % TNF-α inhibition in in vivo sepsis in mice (serum TNF-α production) [%] | inhibition at 1 µM (COX-2) [%] | inhibition at 10 µM (COX-2) [%] | inhibition at 10 µM (COX-1) [%] | inhibition at 1 µM (IL-6) [%] | inhibition at 10 µM (IL-6) [%] | inhibition at 1 µM (TNF-α) [%] | inhibition at 10 µM (TNF-α) [%] | melting point [°C]
Cc1nccn1CC1CCc2c(c3ccccc3n2C)/C1=N/Oc1ccc(Br)cn1 (stereo not drawn) [Example 17, (4E)-9-methyl-3-[(2-methyl-1H-imidazol-1-yl)methyl]-1,2,3,9-tetrahydro-4H-carbazol-4-one O-[5-bromo-pyridin-2-yl]oxime] | 82.69 | 41.5 | 42.7 | – | – | – | – | – | –
COc1cc(O/N=C2/c3c(n(C)c4ccccc34)CCC2Cn2ccnc2C)nc(OC)n1 (stereo not drawn) [Example 20, (4E)-9-methyl-3-[(2-methyl-1H-imidazol-1-yl)methyl]-1,2,3,9-tetrahydro-4H-carbazol-4-one O-(2,6-dimethoxypyrimidin-4-yl)oxime] | – | 32.7 | 34.9 | 39.1 | – | – | – | – | –
Cc1nccn1CC1CCc2c(c3ccccc3n2C)/C1=N/Oc1ccc(C(F)(F)F)cn1 (stereo not drawn) [Example 21, (4E)-9-methyl-3-[(2-methyl-1H-imidazol-1-yl)methyl]-1,2,3,9-tetrahydro-4H-carbazol-4-one O-[5-trifluoromethyl-pyridin-2-yl]oxime] | – | 23 | 23.6 | – | – | – | – | – | –
Cc1nccn1CC1CCc2c(c3ccccc3n2C)/C1=N/OC(=O)c1ccccc1Cl (stereo not drawn) [Example 37, (4E)-9-methyl-3-[(2-methyl-1H-imidazol-1-yl)methyl]-1,2,3,9-tetrahydro-4H-carbazol-4-one O-2-chlorobenzoyloxime] | – | – | – | – | 21.1 | 32.2 | 14.5 | 42.1 | 111 to 116
Cc1nccn1CC1CCc2c(c3ccccc3n2C)/C1=N/OC(=O)c1ccccc1Br (stereo not drawn) [Example 39, (4E)-9-methyl-3-[(2-methyl-1H-imidazol-1-yl)methyl]-1,2,3,9-tetrahydro-4H-carbazol-4-one O-2-bromobenzoyloxime] | – | – | – | – | 28.5 | 19.1 | 26.1 | 45.8 | 108 to 112
Cc1nccn1CC1CCc2c(c3ccccc3n2C)/C1=N/OC(=O)c1cccc(Cl)n1 (stereo not drawn) [Example 40, (4E)-9-methyl-3-[(2-methyl-1H-imidazol-1-yl)methyl]-1,2,3,9-tetrahydro-4H-carbazol-4-one O-6-chloropyridinoyloxime] | – | – | – | – | 20.5 | 21.3 | – | – | 170 to 175
CCc1ccc(C(=O)O/N=C2/c3c(n(C)c4ccccc34)CCC2Cn2ccnc2C)cc1 (stereo not drawn) [Example 41, (4E)-9-methyl-3-[(2-methyl-1H-imidazol-1-yl)methyl]-1,2,3,9-tetrahydro-4H-carbazol-4-one O-4-ethylbenzoyloxime] | – | – | – | – | 7.63 | 3.09 | – | – | 175 to 178
Cc1nccn1CC1CCc2c(c3ccccc3n2C)/C1=N/OC(=O)C1CCCCC1 (stereo not drawn) [Example 42, (4E)-9-methyl-3-[(2-methyl-1H-imidazol-1-yl)methyl]-1,2,3,9-tetrahydro-4H-carbazol-4-one O-cyclohexanoyloxime] | – | – | – | – | 7.96 | 18.5 | – | – | 98 to 106
Cc1nccn1CC1CCc2c(c3ccccc3n2C)/C1=N/OC(=O)c1ccc(C#N)cc1 (stereo not drawn) [Example 44, (4E)-9-methyl-3-[(2-methyl-1H-imidazol-1-yl)methyl]-1,2,3,9-tetrahydro-4H-carbazol-4-one O-4-cyanobenzoyloxime] | – | – | – | – | 13.2 | 22.7 | 23.5 | 45.6 | 178 to 180
Cc1nccn1CC1CCc2c(c3ccccc3n2C)/C1=N/OC(=O)c1ccc(Br)s1 (stereo not drawn) [Example 62, (4E)-9-methyl-3-[(2-methyl-1H-imidazol-1-yl)methyl]-1,2,3,9-tetrahydro-4H-carbazol-4-one O-[(5-bromothien-2-yl)carbonyl]oxime] | 86.10 | 42 | 36.5 | 16.4 | – | – | – | – | –
Cc1nccn1CC1CCc2c(c3ccccc3n2C)/C1=N/OC(=O)c1cccc(C#N)c1 (stereo not drawn) [Example 65, (4E)-9-methyl-3-[(2-methyl-1H-imidazol-1-yl)methyl]-1,2,3,9-tetrahydro-4H-carbazol-4-one O-3-cyanobenzoyloxime] | – | – | – | – | 13.7 | 30.6 | – | – | 160 to 166
